Measurements as given in patent US20080070939A1, “LOCAL […] COMPOSITIONS CONTAINING DEXTROROTATORY MORPHINAN DERIVATIVES OR PHARMACEUTICALLY ACCEPTABLE SALTS THEREOF” (CHI MEI FOUNDATION HOSPITAL, priority 2006, published 2008).
Structures can show the parent of a compound that is named as a salt.

Tests used:
rats = test: Systemic safety indices: mortality 24 hours after intraperitoneal injection in rats
Protocol: (§1) Essentially, each drug was injected intraperitoneally into the rats (n=8). The number of dead rats was observed after 24 hours, and the rate of mortality (%) was calculated. Thereafter, the doses of each drug and the relative mortality were plotted to obtain dose-mortality curves of the drugs. […] The safety index (LD50/ED50) of each drug was calculated using the LD50 thus obtained and the ED50 obtained in the section “C. Potency evaluation” of this example.

[1] = as above; settings: rat, in vivo, ip
Protocol: as §1

Male Sprague-Dawley rats = test: Spinal anesthetic effect (spinal blockade) after intrathecal injection in rats; assay type: in vivo; set-up: AUC of time-% PE curve, spinal blockade of motor function / AUC of time-% PE curve, spinal blockade of proprioception / AUC of time-% PE curve, spinal blockade of nociceptive reaction: unit not given beside the values
Protocol: Male Sprague-Dawley rats (weighing about 300 to 350 g); for each dose of each drug, n=6.
In brief, for preparation, the hairs on the back of each rat were shaved, and the shaved back was sterilized with iodine.
After three minutes, 50 μL of each of the tested drugs was injected via a 27-gauge needle attached to a 100-μL syringe (Hamilton, Reno, Nev.) into the intrathecal space between the fourth and fifth lumbar vertebrae. The development of spinal blockade was observed from the paralysis of the hind limbs of the rats.
The magnitude of nerve block (including blocking of motor function, proprioception, and nociceptive reaction) was expressed as the percentage of possible effect (hereinafter referred to as % PE), and the maximal value of % PE was expressed as the percentage of maximal possible effect (hereinafter referred to as % MPE).
Motor function was evaluated by measuring the extensor postural thrust of the right hind limbs of the rats using a digital platform balance (Mettler Toledo, Switzerland, model PB1502-S). To test the extensor postural thrust, the rat was held upright with the hind limb extended, so that the body weight of the rat was supported by the distal metatarsus and toes. The extensor postural thrust could be measured as the force of the right hind limb of the rat thrusting the platform balance.
A reduction in the force, resulting in extensor muscle tone, was considered as a motor deficit. A force less than 20 g (i.e., a weight of the “flaccid limb”) was considered absence of an extensor postural thrust or 100% motor block or 100% MPE.
Proprioception was evaluated based on resting posture and postural reactions (including tactile placing and hopping). First, the front half of the rat body and one of the hind limbs were lifted off the ground at the same time so that the rat was standing on one hind limb. Then, the rat was moved laterally, which normally evoked a prompt hopping response of the weight-bearing hind limb of the rat in the direction of movement so as to avoid falling. A predominantly proprioceptive block caused a delayed hopping followed by greater lateral hops. […] Functional deficits were classified into four grades: 3 (normal or 0% MPE), 2 (slightly impaired), 1 (severely impaired), and 0 (completely impaired or 100% MPE).
Nociceptive reaction was evaluated by the withdrawal reflex or vocalization elicited by the pinch of a skin fold over the back at 1 cm near the proximal part of the tail, the lateral metatarsus of the bilateral hind limbs, and the dorsal part of the mid-tail. At each testing time, only one pinch was given to each of the abovementioned four testing sites, and the time interval between stimulations at different sites was around 2 seconds. Nociceptive reactions were classified into five grades: 4 (normal or 0% MPE), 3 (25% MPE), 2 (50% MPE), 1 (75% MPE), and 0 (absent or 100% MPE).
The potency of each drug on spinal blockades was compared using ED50.
Duration was defined as the interval from injection of the tested drugs to complete recovery. The ED25, ED50 and ED75 obtained according to the SAS NLIN analysis in the preceding section “C. Potency evaluation” were used in this experiment.
Regarding the method of evaluating the effect of co-administration, dextromethorphan hydrobromide monohydrate was used as an example.
After the tests, the time of measurement of each drug and its corresponding % PE were plotted to obtain the time-% PE curves of each drug. The area under the curve (AUC) of time-% PE was calculated using the trapezoidal rule, and was used to evaluate the effect of the co-administration of the drugs.
Statistical software, SPSS for Windows® (version 10.0.7) was used. Data were represented as mean±SEM.

[2] = intrathecal, rats, 2 ED50 when administered independently, ED50 of each drug when co-administered, mean ± SEM
[3] = spinal blockade, mean of motor function, proprioception and nociceptive reaction, intrathecal, rats

Compound: COc1ccc2c(c1)[C@]13CCCC[C@@H]1[C@H](C2)N(C)CC3 [Dextromethorphan hydrobromide monohydrate]
- systemic safety index relative to that of lidocaine hydrochloride (rats; LD50/ED50, rats): 2.4 times
- safety index LD50/ED50 (rats; LD50 intraperitoneal / ED50 of infiltrative cutaneous anesthesia, rats): 67.3
- LD50 at 24 h [1]: 138 mg/kg
- % MPE of spinal blockades of motor function, proprioception and nociceptive reaction (range over the three functions) (Male Sprague-Dawley rats; intrathecal dose of ED75, rats): 66-80 % MPE
- duration of spinal blockades of motor function, proprioception and nociceptive reaction (range over the three functions) (Male Sprague-Dawley rats; intrathecal dose of ED75, rats): 22 to 40 min
- effect of co-administration with bupivacaine hydrochloride on spinal blockade (Male Sprague-Dawley rats; intrathecal, rats, ED50 of each drug): additive effect
- AUC of time-% PE curve, spinal blockade of motor function (Male Sprague-Dawley rats; [2]): 953 ± 114
- AUC of time-% PE curve, spinal blockade of nociceptive reaction (Male Sprague-Dawley rats; [2]): 4131 ± 385
- AUC of time-% PE curve, spinal blockade of proprioception (Male Sprague-Dawley rats; [2]): 1985 ± 219
- Motor function ED50 (95% CI) (Male Sprague-Dawley rats; spinal blockade of motor function, intrathecal injection, rats): 0.56 (0.54–0.59) mg
- Nociceptive reaction ED50 (95% CI) (Male Sprague-Dawley rats; spinal blockade of nociceptive reaction, intrathecal injection, rats): 0.46 (0.43–0.49) mg
- Proprioception ED50 (95% CI) (Male Sprague-Dawley rats; spinal blockade of proprioception, intrathecal injection, rats): 0.48 (0.45–0.52) mg
- Mean value ED25 (Male Sprague-Dawley rats; [3]): 0.39 mg
- Mean value ED50 (Male Sprague-Dawley rats; [3]): 0.50 mg
- Mean value ED75 (Male Sprague-Dawley rats; [3]): 0.65 mg
